Legend:
Format in all cases: in vivo
mice [1] = assay: Nicotine antagonism test; settings: Mus musculus; Table II, route not given
Protocol: Nicotine antagonism test: Mice in a group of 6 are injected with the test compound (8-chloro-1-methyl-6-phenyl-4H-s-triazolo[ 4,3-a][ 1,4]benzodiazepine). Thirty minutes later the mice, including control (untreated) mice are injected with nicotine salicylate (2 mg./kg.). The control mice show overstimulation, i.e., (1) running convulsions followed by (2) tonic extensor fits, followed by (3) death.

mice [2] = assay: Chimney test (mice back up and out of a vertical glass cylinder within 30 seconds); settings: Mus musculus
Protocol: (§1) Sedative effects of 8-chloro-1-methyl-6-phenyl-4H-s-triazolo[ 4,3-a][ 1,4]benzodiazepine (a final product conforming to formula VII) are shown by the following tests in mice: […]
Chimney test: [Med. Exp. 4, 145 (1961)]: The effective intraperitoneal dosage for 50% of the mice (ED50) is 0.09 mg./kg.; the oral ED50 is 0.6 mg./kg. The test determines the ability of mice to back up and out of a vertical glass cylinder within 30 seconds. At the effective dosage, 50% of the mice failed doing it.

mice [3] = assay: Dish test (mice remaining in Petri dish for more than 3 minutes); settings: Mus musculus; Table II, route not given
Protocol: as §1
Dish test: Mice in Petri dishes (10 cm. diameter, 5 cm. high, partially embedded in wood shavings), climb out in a very short time, when not treated. Mice remaining in the dish for more than 3 minutes indicates tranquilization. ED50 equals the dose of the test compound at which 50% of the mice remain in the dish.

mice [4] = assay: Pedestal test (mice staying on the pedestal for more than 1 minute); settings: Mus musculus; Table II, route not given
Protocol: as §1
Pedestal test; The untreated mouse leaves the pedestal in less than a minute to climb back to the floor of the standard mouse box. Tranquilized mice will stay on the pedestal for more than 1 minute. The ED50 (oral administration) is 0.9 mg./kg.

Structure (SMILES)	ED50 (mice [1]) [mg/kg]	ED50 (mice [2]; Table II, route not given, read-out: ED50 Ch) [mg/kg]	ED50 (mice [3]) [mg/kg]	ED50 (mice [4]) [mg/kg]	ED50 (mice [2]; mice, oral, read-out: oral ED50, chimney test) [mg/kg]
Cc1nncn1-c1ccc(Cl)cc1C(=O)c1ccccc1 [5-Chloro-2-(3-methyl-4H-1,2,4-triazol-4-yl)benzophenone]	20	28	23	20	
Cc1nnc2n1-c1ccc(Cl)cc1C(c1ccccc1)=NC2 [8-Chloro-1-methyl-6-phenyl-4H-s-triazolo[4,3-a][1,4]benzodiazepine]					0.6

— patent US4000151A, “Triazolyl benzophenone compounds” (priority 1975, dated 1976)
